Laboratory results taken from patent publication US20240108598A1, “Danegaptide for Use in the Treatment or Prevention of a Kidney Disease” (CIANA THERAPEUTICS APS, priority 2021, published 2024).

How the values were obtained:
HK2 cells = assay: Crystal violet assay; assay type: cell-based, human; conditions: 48 h
Protocol: HK2 cells were cultured in low glucose (5 mM) for 48 h, prior to being serum-starved overnight and subsequently treated with TGFβ1 (10 ng/mL)±danegaptide (50 nM-1 μM) for 48 h (FIG. 1A, n=3).
This simple assay was used to measure the relative density of adhered cells to multi-well dishes. Crystal Violet stains DNA and can be quantified colourmetrically after solubilisation. HK2 cells were seeded in 12-well plates and cultured in low glucose DMEM/F12 (5 mM) for 48 h, prior to overnight serum-starvation, then subsequently stimulated for 48 h with TGFβ1 (10 ng/ml)±danegaptide (50-1000 nM). The assay has been described previously (Hills, C. E.; Jin, T.; Siamantouras, E.; Liulssac, I. K. K.; Jefferson, K. P.; Squires, P. E. “Special K” and a Loss of Cell-To-Cell Adhesion in Proximal Tubule-Derived Epithelial Cells: Modulation of the Adherens Junction Complex by Ketamine. PLoS One 2013, 8, e71819). Briefly, cells were fixed using paraformaldehyde for 10 mins, washed with PBS and incubated for 10 mins at RT in a 1% crystal violet solution. After several more washes, the stain was solubilised using 1% SDS, and absorbance measured by a plate reader.

Cx43 hemichannels = molecular target: T1, Cx43 hemichannels (Homo sapiens, UniProt P17302); assay: ATP biosensing (hemichannel mediated ATP release); assay type: cell-based; conditions: for ATP release: hPTECs
T1 construct: host or cells: HK2 human kidney proximal tubule epithelial cell line
T1 sequence (P17302 whole entry): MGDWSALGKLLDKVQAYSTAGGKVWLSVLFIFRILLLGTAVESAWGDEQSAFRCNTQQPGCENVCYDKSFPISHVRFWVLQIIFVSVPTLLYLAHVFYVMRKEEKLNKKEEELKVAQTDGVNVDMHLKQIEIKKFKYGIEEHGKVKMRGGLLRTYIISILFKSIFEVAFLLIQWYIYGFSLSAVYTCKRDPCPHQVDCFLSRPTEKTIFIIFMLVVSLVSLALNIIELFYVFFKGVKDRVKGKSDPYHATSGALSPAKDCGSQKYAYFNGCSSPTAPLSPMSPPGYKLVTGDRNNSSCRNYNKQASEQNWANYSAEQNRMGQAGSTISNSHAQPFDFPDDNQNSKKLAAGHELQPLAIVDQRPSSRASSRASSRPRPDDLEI
Protocol: HK2 cells were cultured in low (5 mM) glucose with/without TGFβ1 (10 ng/ml)±danegaptide (50 or 100 nM) for 48 h. Representative biosensor traces show ATP release following removal of extracellular calcium. […] Peak responses were quantified by comparing against a known concentration of ATP (10 μM) and mean data±SEM plotted (E). Results are representative of 3 separate experiments (n=3; **P<0.01, […] ***P<0.001; one-way ANOVA and Tukey's post-test).
ATP biosensors (Sarissa Biomedical, Coventry UK) were used in a simultaneous dual-recording ampomeric setup as described previously (Price, G. W.; Chadjichristos, C. E.; Kavvadas, P.; Tang, S. C. W.; Yiu, W. H.; Green, C. R.; Potter, J. A.; Siamantouras, E.; Squires, P. E.; Hills, C. E. Blocking Connexin-43 mediated hemichannel activity protects against early tubular injury in experimental chronic kidney disease. Cell Commun. Signal. 2020, 18). A null biosensor was used to account for non-specific electro-active artefacts and subtracted from the ATP trace. Glycerol (2 mM) was included in all recording solutions to enable ATP detection. HK2 cells were seeded on glass coverslips (10 mm diameter) in low glucose DMEM/F12 (5 mmol/L) for 48 h, prior to an overnight serum-starvation. The cells were then incubated with TGFβ1 (10 ng/ml)±danegaptide (100 nM) for 48 h. The coverslips were transferred to a chamber containing Ca^2+-containing BSS perfused at 6 ml/min (37° C.) and left for 10 min to acclimatise. ATP and null biosensors were bent and lowered so that the electrode laid parallel to the cellular monolayer. Once a stable baseline occurred, perfusion of Ca^2+-free BSS stimulated hemichannel opening. After ATP release, Ca^2+-containing BSS was used to close hemichannels, followed by a calibration solution of ATP ([…]). Recordings were acquired at 4 Hz with a Micro CED (Mark2) interface using Spike (v8.03) software.

primary hPTECs = assay: Inflammation antibody array, supernatant (Table 2); assay type: cell-based, human; conditions: hPTEC supernatant; TGF-β1 10 ng/mL + DG 100 nM, 48 h
Text: An inflammation antibody array was used to assess regulation of 31 candidate inflammatory proteins in supernatant from hPTEC cells treated with TGFβ1±danegaptide. Results are representative of 3 separate experiments and presented as mean±SEM, n=3 with key significances indicated (*P<0.05, **P<0.01, ***P<0.001; one-way ANOVA and Tukey's post-test).
A proteome profiler array (Human Cytokine Array Kit from R&D Systems, Oxfordshire, UK) was used, to determine if danegaptide negates TGFβ1-induced changes in expression and secretion of key pro-inflammatory mediators. Primary hPTECs were cultured as described above and treated with TGFβ1 (10 ng/mL)±danegaptide (100 nM) for 48 h.

NCC(=O)N1C[C@H](NC(=O)c2ccccc2)C[C@H]1C(=O)O [danegaptide, (2S,4R)-1-(2-aminoacetyl)-4-benzamidopyrrolidine2-carboxylic acid]
crystal violet staining, of control (HK2 cells; TGFβ1 10 ng/mL + danegaptide 50 nM): 98.2±1.9%
crystal violet staining, of control (HK2 cells; TGFβ1 10 ng/mL + danegaptide 100 nM): 97.5±1.8%
crystal violet staining, of control (HK2 cells; TGFβ1 10 ng/mL + danegaptide 1 μM): 85.8±5.3%
crystal violet staining, of control (HK2 cells; danegaptide alone 50 nM): 98.3±2.5%
crystal violet staining, of control (HK2 cells; danegaptide alone 100 nM): 99.6±2.7%
crystal violet staining, of control (HK2 cells; danegaptide alone 1 μM): 98.5±2.2%
optimal concentration in the microenvironment (dose finding, dye uptake and ATP biosensing) (Cx43 hemichannels; HK2 cells): 50 to 100 nM
ATP release (Cx43 hemichannels; TGFβ1 10 ng/mL + danegaptide 50 nM, 48 h): 1.90 ± 0.26 µM
ATP release (Cx43 hemichannels; TGFβ1 10 ng/mL + danegaptide 100 nM, 48 h): 0.79 ± 0.19 µM
ATP release (Cx43 hemichannels; danegaptide alone 50 nM): 0.35 ± 0.10 µM
ATP release (Cx43 hemichannels; danegaptide alone 100 nM): 0.31 ± 0.09 µM
Angiogenin in supernatant (% compared to control) (primary hPTECs): 129 ± 14.7%
Cystatin C in supernatant (% compared to control) (primary hPTECs): 88 ± 6.8%
DPPIV in supernatant (% compared to control) (primary hPTECs): 179 ± 37.8%
ENA 78 in supernatant (% compared to control) (primary hPTECs): 119 ± 3.9%
Endoglin in supernatant (% compared to control) (primary hPTECs): 94 ± 5.8%
FGF7 in supernatant (% compared to control) (primary hPTECs): 102 ± 16.5%
Flt 3 Ligand in supernatant (% compared to control) (primary hPTECs): 103 ± 12.8%
G-CSF in supernatant (% compared to control) (primary hPTECs): 117 ± 12.0%
GM-CSF in supernatant (% compared to control) (primary hPTECs): 114 ± 3.8%
HGF in supernatant (% compared to control) (primary hPTECs): 88 ± 13.7%
ICAM-1 in supernatant (% compared to control) (primary hPTECs): 124 ± 16.6%
IFNg in supernatant (% compared to control) (primary hPTECs): 90 ± 12.7%
IGFBP-2 in supernatant (% compared to control) (primary hPTECs): 90 ± 6.4%
IGFBP-3 in supernatant (% compared to control) (primary hPTECs): 84.7 ± 14.3%
IL1A in supernatant (% compared to control) (primary hPTECs): 89 ± 21.5%
IL3 in supernatant (% compared to control) (primary hPTECs): 107 ± 38.0%
IL8 in supernatant (% compared to control) (primary hPTECs): 99 ± 26.4%
IL12 p70 in supernatant (% compared to control) (primary hPTECs): 63 ± 15.9%
IL13 in supernatant (% compared to control) (primary hPTECs): 62 ± 27.2%
Kallikrein 3 in supernatant (% compared to control) (primary hPTECs): 74 ± 20.6%
LIF in supernatant (% compared to control) (primary hPTECs): 134 ± 5.4%
MCP-1 in supernatant (% compared to control) (primary hPTECs): 101 ± 6.2%
MMP-9 in supernatant (% compared to control) (primary hPTECs): 80 ± 8.9%
PDGF-AA/BB in supernatant (% compared to control) (primary hPTECs): 99 ± 6.3%
RAGE in supernatant (% compared to control) (primary hPTECs): 99 ± 12.5%
RANTES in supernatant (% compared to control) (primary hPTECs): 101 ± 12.1%
Serpin E1 in supernatant (% compared to control) (primary hPTECs): 81 ± 42.8%
TFF3 in supernatant (% compared to control) (primary hPTECs): 98 ± 17.5%
TNF-α in supernatant (% compared to control) (primary hPTECs): 139 ± 6.1%
Thrombospondin-1 in supernatant (% compared to control) (primary hPTECs): 115 ± 11.9%
VEGF in supernatant (% compared to control) (primary hPTECs): 217 ± 49.3%
